Results from US20120258961A1, “4-AMINO-1,3-THIAZINE OR OXAZINE DERIVATIVE” (SHIONOGI & CO., LTD., priority 2009, published 2012).

How the values were obtained:
[1] = test system: Neuroblastoma SH-SY5Y cells (SH/APPwt) with human wild-type β-APP excessively expressed; test: Measurement of β-amyloid (Aβ) production inhibitory effect in cell; type: cell-based; details: 24 hours, Amyloid β 1-40 HTRF in culture supernatant, read-out: Test example 2 IC50 (amount needed to inhibit Aβ production by 50%)
Experimental: Neuroblastoma SH-SY5Y cells (SH/APPwt) with human wild-type β-APP excessively expressed therein were prepared at 8×10^5 cells/mL, and 150 μl portions thereof were inoculated into each well of a 96-well culture plate (Falcon). The cells were cultured for 2 hours at 37° C. in a 5% gaseous carbon dioxide incubator. Then, a solution which had been preliminarily prepared by adding and suspending the test compound (DMSO (dimethyl sulfoxide) solution) so as to be 2 μl/50 μl medium was added to the cell sap. Namely, the final DMSO concentration was 1%, and the amount of the cell culture was 200 μl. After the incubation was performed for 24 hours from the addition of the test compound, 100 μl of the culture supernatant was collected from each fraction. The amount of the Aβ in each fraction was measured.
The Aβ amount was measured as follows. 10 μl of a homogeneous time resolved fluorescence (HTRF) measurement reagent (Amyloid β 1-40 peptide; IBA Molecular Holding, S.A.) and 10 μl of the culture supernatant were put into a 384-well half area microplate (black microplate, Costar) and mixed with each other, and then left standing overnight at 4° C. while the light was shielded. Then, the fluorescence intensity (excitation wavelength: 337 nm, measurement wavelength: 620 nm and 665 nm) was measured with a Wallac 1420 multilabel counter (Perkin Elmer life sciences). The Aβ amount was determined from the count rate at each measurement wavelength (10000×Count 665/Count 620), and the amount needed to inhibit Aβ production by 50% (IC50) was calculated from at least six different dosages.

[2] = BA test (oral absorption); type: in vivo; details: plasma; from AUCs of oral and intravenous administration groups, mouse or rats
Experimental: Materials and Methods for studies on oral absorption
(1) Animal: Mouse or Rats
(2) Breeding conditions: mouse or rats were allowed to freely take solid feed and sterilized tap water. (3) Dose and grouping: orally or intravenously administered at a predetermined dose; grouping was as follows (Dose depends on the compound) Oral administration: 1 to 30 mg/kg (n=2 to 3) Intravenous administration: 0.5 to 10 mg/kg (n=2 to 3) (4) Preparation of dosing solution: for oral administration, in a solution or a suspension state; for intravenous administration, in a solubilized state (5) Administration method: in oral administration, forcedly administer into ventriculus with oral probe; in intravenous administration, administer from caudal vein with a needle-equipped syringe (6) Evaluation items: blood was collected over time, and the plasma concentration of drug was measured by LC/MS/MS (7) Statistical analysis: regarding the transition of the plasma concentration, the area under the plasma concentration-time curve (AUC) was calculated by non-linear least squares program WinNonlin (Registered trade name), and the bioavailability (BA) was calculated from the AUCs of the oral administration group and intravenous administration group

Recombinant human BACE1 = target: T1, Recombinant human BACE1 (Homo sapiens, UniProt P56817); test: Assay of BACE1 inhibiting activity; type: biochemical; details: Recombinant human BACE1 7.4 nmol/L, substrate peptide 18 nmol/L, pH 5.0, 30° C., 3 hours; read-out: Test example 1 IC50 (BACE1 inhibiting activity)
T1 construct: purchased R&D Systems
Experimental: 48.5 μL of substrate peptide solution (Biotin-XSEVNLDAEFRHDSGC-Eu: X=ε-amino-n-capronic acid, Eu=Europium cryptate) was added to each well of 96-hole half-area plate (a black plate: Costar), and after addition of 0.5 μl of the test compound (dissolved in […]) and 1 μl of Recombinant human BACE1 (R&D Systems), the reaction mixture was incubated at 30° C. for 3 hours. The substrate peptide was synthesized by reacting Cryptate TBPCOOH mono SMP (CIS bio international) with Biotin-XSEVNLDAEFRHDSGC (Peptide Institute, Inc.). The final concentrations of the substrate peptide and Recombinant human BACE1 were adjusted to 18 nmol/L and 7.4 nmol/L, respectively, and the reaction was performed in sodium acetate buffer (50 mmol/L sodium acetate, pH 5.0, 0.008% Triton X-100). After the incubation for reaction, 50 μl of 8.0 μg/ml Streptavidin-XL665 (CIS bio international) dissolved in phosphate buffer (150 mmol/L K2HPO4—KH2PO4, pH 7.0, 0.008% Triton X-100, 0.8 mol/L KF) was added to each well and left stand at 30° C. for an hour. After then, fluorescence intensity was measured (excitation wavelength: 320 nm, measuring wavelength: 620 nm and 665 nm) using Wallac 1420 multilabel counter (Perkin Elmer life sciences). Enzymatic activity was determined from counting ratio of each wavelength (10,000×Count 665/Count 620) and 50% inhibitory concentration (IC50) against the enzymatic activity was calculated.

[3] = target: T2, CYP3A4 enzyme expressed in Escherichia coli (Homo sapiens, UniProt P08684); test: CYP3A4 fluorescent MBI test; type: in vitro ADME; details: substrate 7-BFC
T2 construct: host or cells: Escherichia coli
Experimental: The CYP3A4 fluorescent MBI test is a test of investigating enhancement of CYP3A4 inhibition of a compound by a metabolism reaction, and the test was performed using, as CYP3A4 enzyme expressed in Escherichia coli and employing, as an index, a reaction in which 7-benzyloxytrifluoromethylchmarin (7-BFC) is debenzylated by the CYP3A4 enzyme to produce a metabolite, 7-hydroxytrifluoromethylchmarin (HFC) emitting fluorescent light.
The reaction conditions were as follows: substrate, 5.6 μmol/L 7-BFC; pre-reaction time, 0 or […]; reaction time, 15 minutes; reaction temperature, 25° C. […]
An enzyme in a K-Pi buffer (pH 7.4) and a test drug solution as a pre-reaction solution were added to a 96-well plate at the composition of the pre-reaction, a part of it was transferred to another 96-well plate so that it was 1/10 diluted by a substrate in a K-Pi buffer, NADPH as a co-factor was added to initiate a reaction as an index (without preincubation) and, after a predetermined time of a reaction, acetonitrile/0.5 mol/L Tris(trishydroxyaminomethane)=4/1 was added to stop the reaction. […] For the plate on which each index reaction had been performed, a fluorescent value of 7-HFC which is a metabolite was measured with a fluorescent plate reader. […]

[4] = Solubility test (Test Example 7(1)); type: physicochemical; details: aqueous buffer, kinetic from dmso stock; medium (JP-I, JP-II), 2% DMSO solution, after 4 hours; read-out: Solubility assessed by 3 stages from turbidity
Experimental: A 2-fold dilution series (12 points) of a 10 mM solution of a test compound in DMSO was added to a medium (JP-I, JP-II) (2%), and solubility was assessed by 3 stages (High; >40 μM, Medium; 3-40 μM, Low; <3 μM) from a turbidity after 4 hours (crystallization information).

[5] = Brain distribution studies; type: in vivo; details: rat, intravenous 0.5 mg/mL/kg, 30 minutes later, read-out: Brain Kp value (area ratio brain/plasma)
Experimental: Intravenous administration is carried out to a rat by 0.5 mg/mL/kg dosage of a text compound. […] Then, the brain was extracted and 20-25% of homogenate thereof was prepared with distilled water. On the other hand, the obtained blood is used as plasma after centrifuging. Then, to the brain sample was added the control plasma at 1:1. To the plasma samples was added the control brains at 1:1. Each sample was measured using LC/MS/MS. The obtained area ratio (a brain/plasma) was used for the brain Kp value.

[6] = Metabolism stability test; type: in vitro ADME; details: human liver microsomes 0.5 mg protein/mL, 1 mmol/L NADPH, 37° C., 30 minutes
Experimental: Using a commercially available pooled human hepatic microsomes, a test compound was reacted for a constant time, a remaining rate was calculated by comparing a reacted sample and an unreacted sample, thereby, a degree of metabolism in liver was assessed.
A reaction was performed (oxidative reaction) at 37° C. for 0 minute or 30 minutes in the presence of 1 mmol/L NADPH in 0.2 mL of a buffer (50 mmol/L Tris-HCl pH 7.4, 150 mmol/L potassium chloride, 10 mmol/L magnesium chloride) containing 0.5 mg protein/mL of human liver microsomes. After the reaction, 50 μL of the reaction solution was added to 100 μL of a methanol/acetonitrile=1/1 (v/v), mixed and centrifuged at 3000 rpm for 15 minutes. The test compound in the supernatant was quantified by LC/MS/MS, and a remaining amount of the test compound after the reaction was calculated, letting a compound amount at 0 minute reaction time to be 100%.

[7] = test system: CYP1A2, CYP2C9, CYP2C19, CYP2D6, CYP3A4; test: in vitro; details: human, microsomes
Text: Using commercially available pooled human hepatic microsome, and employing, as markers, O-deethylation of 7-ethoxyresorufin (CYP1A2), methyl-hydroxylation of tolbutamide (CYP2C9), 4′-hydroxylation of mephenyloin (CYP2C19), O-demethylation of dextromethorphan (CYP2D6) and hydroxylation of terfenadine (CYP3A4) as typical substrate metabolism reactions of human main five CYP enzyme forms (CYP1A2, 2C9, 2C19, 2D6, 3A4), an inhibitory degree of each metabolite production amount by a test compound was assessed. […]
Each five kinds of substrates, human hepatic microsome, and a test drug in 50 mmol/L Hepes buffer as a reaction solution was added to a 96-well plate at the composition as described above, NADPH, as a cofactor was added to initiate metabolism reactions as markers and, after the incubation at 37° C. for 15 minutes, a methanol/acetonitrile=1/1 (v/v) solution was added to stop the reaction. After the centrifugation at 3000 rpm for 15 minutes, resorufin (CYP1A2 metabolite) in the supernatant was quantified by a fluorescent multilabel counter and tributamide hydroxide (CYP2CP metabolite), mephenyloin 4′ hydroxide (CYP2C19 metabolite), dextromethorphan (CYP2D6 metabolite), and terfenadine alcohol (CYP3A4 metabolite) were quantified by LC/MS/MS. […]

T1 sequence (P56817 46-501): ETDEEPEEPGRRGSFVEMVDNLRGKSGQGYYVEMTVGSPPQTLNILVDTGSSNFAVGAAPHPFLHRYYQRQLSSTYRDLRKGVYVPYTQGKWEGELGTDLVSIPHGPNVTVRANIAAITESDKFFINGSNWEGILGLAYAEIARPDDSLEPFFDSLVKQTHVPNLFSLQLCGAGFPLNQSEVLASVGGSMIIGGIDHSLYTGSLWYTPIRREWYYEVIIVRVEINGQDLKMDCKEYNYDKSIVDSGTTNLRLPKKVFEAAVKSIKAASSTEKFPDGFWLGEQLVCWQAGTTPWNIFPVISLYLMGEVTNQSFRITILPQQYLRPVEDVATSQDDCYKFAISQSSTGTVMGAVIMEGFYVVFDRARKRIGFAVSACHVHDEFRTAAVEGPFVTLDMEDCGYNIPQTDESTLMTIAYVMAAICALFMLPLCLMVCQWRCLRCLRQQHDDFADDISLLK
T2 sequence (P08684 whole entry): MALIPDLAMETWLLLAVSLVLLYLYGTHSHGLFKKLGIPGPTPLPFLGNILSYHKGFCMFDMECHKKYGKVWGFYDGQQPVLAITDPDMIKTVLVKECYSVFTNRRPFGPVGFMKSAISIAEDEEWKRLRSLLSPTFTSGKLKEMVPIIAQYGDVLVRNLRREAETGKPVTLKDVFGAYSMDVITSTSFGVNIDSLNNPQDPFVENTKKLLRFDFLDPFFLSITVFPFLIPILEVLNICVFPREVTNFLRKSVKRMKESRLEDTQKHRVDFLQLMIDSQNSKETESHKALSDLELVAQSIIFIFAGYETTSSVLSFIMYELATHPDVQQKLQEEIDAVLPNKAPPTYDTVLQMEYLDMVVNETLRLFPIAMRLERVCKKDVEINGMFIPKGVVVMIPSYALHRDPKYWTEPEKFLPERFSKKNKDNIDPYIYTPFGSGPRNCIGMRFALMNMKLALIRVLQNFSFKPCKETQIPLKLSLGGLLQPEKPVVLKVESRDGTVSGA

SMILES | IC50 [1] | further results
CC1(c2cc(NC(=O)c3ccc(C#N)cn3)ccc2F)N=C(N)c2ccccc2O1 (stereo not shown) [Compound I-4] | ≤ 1000 nM | CYP3A4 fluorescent MBI: difference between IC50 values without and with preincubation [3]: (−) (when the difference is 3 μM or less, this was defined as (−))
CC1(c2cc(NC(=O)c3ccc(C#N)cn3)ccc2F)N=C(N)c2cc(Cl)ccc2O1 (stereo not shown) [Compound I-5] | ≤ 1000 nM | 
CC1(c2cc(NC(=O)c3ccc(C#N)cn3)ccc2F)N=C(N)c2cc(N)ccc2O1 (stereo not shown) [Compound I-9] | ≤ 1000 nM | solubility at 4 h [4]: > 40 µM
CC1(c2cc(NC(=O)c3ccc(C#N)cn3)ccc2F)N=C(N)c2ccc(N)cc2O1 (stereo not shown) [Compound I-10] | ≤ 1000 nM | 
CC1(c2cc(NC(=O)c3ccc(C#N)cn3)ccc2F)N=C(N)c2cc(F)ccc2O1 (stereo not shown) [Compound I-11] | ≤ 1000 nM | Kp at 0.5 h [5]: 5.8
CC1(c2cc(NC(=O)c3ccc(C#N)cn3)ccc2F)N=C(N)c2ccc(F)cc2O1 (stereo not shown) [Compound I-12] | 15 nM | IC50 (Recombinant human BACE1): 61 nM

The next lines start with results.

IC50 [1] | SMILES | further results
≤ 1000 nM | Cc1cnc(C(=O)Nc2ccc(F)c(C3(C)N=C(N)CCS3)c2)cn1 (stereo not shown) [Compound I-1] | bioavailability [2]: 93.4%
< 1 nM | CC1(c2cc(NC(=O)c3ncc(Cl)cc3Cl)ccc2F)N=C(N)CCS1 (stereo not shown) [Compound I-2] | IC50 (Recombinant human BACE1): 10 nM
≤ 1000 nM | CC1(c2cc(NC(=O)c3ccc(C#N)cn3)ccc2F)N=C(N)c2ccccc2S1 (stereo not shown) [Compound I-3] | 
≤ 1000 nM | CC1(c2cc(NC(=O)c3ccc(C#N)cn3)ccc2F)N=C(N)CCS1 (stereo not shown) [Compound I-6] | 
≤ 1000 nM | Cc1cnc(C(=O)Nc2ccc(F)c(C3(C)N=C(N)c4ccccc4S3)c2)cn1 (stereo not shown) [Compound I-7] | 
19 nM | COc1cnc(C(=O)Nc2ccc(F)c(C3(C)N=C(N)c4ccccc4S3)c2)cn1 (stereo not shown) [Compound I-8] | IC50 (Recombinant human BACE1): 66 nM
≤ 1000 nM | Cc1cnc(C(=O)Nc2ccc(F)c(C3(C)N=C(N)CCS3(=O)=O)c2)cn1 (stereo not shown) [Compound I-19] | Remaining amount of the test compound after the reaction (metabolism stability) [6]: 97%; IC50 at 15 min [7]: > 17000 nM
